Some results are limits rather than exact numbers.

The test concerns RS4;11 cells. Description: RS4;11 cell viability assay (CellTiter Glo).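 Also: acute lymphoblastic leukemia line RS4,11, EC50 derived from percentage of viable cells after treatment relative to untreated controls, cell killing taken as a measure of Bcl-2 inhibition.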 The test is classed as cell-based, human. As to conditions: Homo sapiens, RS4-11, 48 h, 50,000 cells per well, 10% human serum, 48 hours; read-out: RS4; 11 EC50 Values. A general note: Cellular ATP, detected with luciferase, serves as a proxy for viable cell number.
Procedure: The acute lymphoblastic leukemia (ALL) cell line RS4;11 was used as the primary human cell line to assess the cellular activity of Bcl-2 selective agents in vitro and their efficacy in vivo.
Cell cytotoxicity EC50 values were assessed using CellTiter Glo (Promega) according to the manufacturer's recommendations. The EC50 values were determined as a percentage of viable cells following treatment compared to the untreated control cells.
Take `CC1(C)CCC(CN2CCN(c3ccc(C(=O)NS(=O)(=O)c4cnc(OC[C@@H]5CN(C6CC6)CCO5)c(Cl)c4)c(Oc4cnc5[nH]ccc5c4)c3)CC2)=C(c2ccc(Cl)cc2)C1` [Example 314, N-[(5-chloro-6-{[(2S)-4-cyclopropylmorpholin-2-yl]methoxy}pyridin-3-yl)sulfonyl]-4-(4-{[2-(4-chlorophenyl)-4,4-dimethylcyclohex-1-en-1-yl]methyl}piperazin-1-yl)-2-(1H-pyrrolo[2,3-b]pyridin-5-yloxy)benzamide]: the EC50 came out at 660 nM.

For `CO[C@H]1CC[C@@H](COc2ncc(S(=O)(=O)NC(=O)c3ccc(N4CCN(CC5=C(c6ccc(Cl)cc6)CC(C)(C)CC5)CC4)cc3Oc3cnc4[nH]ccc4c3)cc2Cl)CC1` [Example 211, Cis-N-({5-chloro-6-[(4-methoxycyclohexyl)methoxy]pyridin-3-yl}sulfonyl)-4-(4-{[2-(4-chlorophenyl)-4,4-dimethylcyclohex-1-en-1-yl]methyl}piperazin-1-yl)-2-(1H-pyrrolo[2,3-b]pyridin-5-yloxy)benzamide], the EC50 came out at 307 nM.

As to `COCCOCCS(=O)(=O)c1ccc(S(=O)(=O)NC(=O)c2ccc(N3CCN(CC4=C(c5ccc(Cl)cc5)CC(C)(C)CC4)CC3)cc2Oc2cnc3[nH]ccc3c2)cc1Cl` [Example 58, N-[(3-chloro-4-{[2-(2-methoxyethoxy)ethyl]sulfonyl}phenyl)sulfonyl]-4-(4-{[2-(4-chlorophenyl)-4,4-dimethylcyclohex-1-en-1-yl]methyl}piperazin-1-yl)-2-(1H-pyrrolo[2,3-b]pyridin-5-yloxy)benzamide], the EC50 was more than 5000 nM.

As for `CC1(C)CCC(CN2CCN(c3ccc(C(=O)NS(=O)(=O)c4ccc(NCCC(F)(F)F)c([N+](=O)[O-])c4)c(Oc4cnc5[nH]ccc5c4)c3)CC2)=C(c2ccc(Cl)cc2)C1` [Example 27, 4-(4-{[2-(4-chlorophenyl)-4,4-dimethylcyclohex-1-en-1-yl]methyl}piperazin-1-yl)-N-({3-nitro-4-[(3,3,3-trifluoropropyl)amino]phenyl}sulfonyl)-2-(1H-pyrrolo[2,3-b]pyridin-5-yloxy)benzamide], the EC50 amounted to 332 nM.

Take `CC1(C)CCC(CN2CCN(c3ccc(C(=O)NS(=O)(=O)c4ccc(N[C@@H]5CCN(CC#N)C5)c([N+](=O)[O-])c4)c(Oc4cnc5[nH]ccc5c4)c3)CC2)=C(c2ccc(Cl)cc2)C1` [Example 262, 4-(4-{[2-(4-chlorophenyl)-4,4-dimethylcyclohex-1-en-1-yl]methyl}piperazin-1-yl)-N-[(4-{[(3R)-1-(cyanomethyl)pyrrolidin-3-yl]amino}-3-nitrophenyl)sulfonyl]-2-(1H-pyrrolo[2,3-b]pyridin-5-yloxy)benzamide]: the EC50 was 16.3 nM.

With `CC1(C)CCC(CN2CCN(c3ccc(C(=O)NS(=O)(=O)c4cnc(OCC5CCN(c6nccs6)CC5)c(Cl)c4)c(Oc4cnc5[nH]ccc5c4)c3)CC2)=C(c2ccc(Cl)cc2)C1` [Example 375, 4-(4-{[2-(4-chlorophenyl)-4,4-dimethylcyclohex-1-en-1-yl]methyl}piperazin-1-yl)-N-[(5-chloro-6-{[1-(1,3-thiazol-2-yl)piperidin-4-yl]methoxy}pyridin-3-yl)sulfonyl]-2-(1H-pyrrolo[2,3-b]pyridin-5-yloxy)benzamide], the EC50 worked out at 560 nM.

On to `CC1(C)CCC(CN2CCN(c3ccc(C(=O)NS(=O)(=O)c4ccc(OCC#CCN5CCOCC5)c([N+](=O)[O-])c4)c(Oc4cnc5[nH]ccc5c4)c3)CC2)=C(c2ccc(Cl)cc2)C1` [Example 68, 4-(4-{[2-(4-chlorophenyl)-4,4-dimethylcyclohex-1-en-1-yl]methyl}piperazin-1-yl)-N-({4-[(4-morpholin-4-ylbut-2-ynyl)oxy]-3-nitrophenyl}sulfonyl)-2-(1H-pyrrolo[2,3-b]pyridin-5-yloxy)benzamide], for which the EC50 stood at 108 nM.

On to `CC1(C)CCC(CN2CCN(c3ccc(C(=O)NS(=O)(=O)c4ccc(OCC5(F)CCOCC5)nc4)c(Oc4cnc5[nH]ccc5c4)c3)CC2)=C(c2ccc(Cl)cc2)C1` [Example 251, 4-(4-{[2-(4-chlorophenyl)-4,4-dimethylcyclohex-1-en-1-yl]methyl}piperazin-1-yl)-N-({6-[(4-fluorotetrahydro-2H-pyran-4-yl)methoxy]pyridin-3-yl}sulfonyl)-2-(1H-pyrrolo[2,3-b]pyridin-5-yloxy)benzamide], for which the EC50 turned out to be 918 nM.

`CC1(C)CCC(CN2CCN(c3ccc(C(=O)NS(=O)(=O)c4ccc(NC[C@@H]5CN(C6CC6)CCO5)c([N+](=O)[O-])c4)c(Oc4cnc5[nH]ccc5c4)c3)CC2)=C(c2ccc(Cl)cc2)C1` [Example 326, 4-(4-{[2-(4-chlorophenyl)-4,4-dimethylcyclohex-1-en-1-yl]methyl}piperazin-1-yl)-N-{[4-({[(2R)-4-cyclopropylmorpholin-2-yl]methyl}amino)-3-nitrophenyl]sulfonyl}-2-(1H-pyrrolo[2,3-b]pyridin-5-yloxy)benzamide]: the EC50 worked out at 23.1 nM.

Consider `CCN1CCOCC1COc1ccc(S(=O)(=O)NC(=O)c2ccc(N3CCN(CC4=C(c5ccc(Cl)cc5)CC(C)(C)CC4)CC3)cc2Oc2cnc3[nH]ccc3c2)cc1[N+](=O)[O-]` (stereo not drawn) [Example 103, 4-(4-{[2-(4-chlorophenyl)-4,4-dimethylcyclohex-1-en-1-yl]methyl}piperazin-1-yl)-N-({4-[(4-ethylmorpholin-3-yl)methoxy]-3-nitrophenyl}sulfonyl)-2-(1H-pyrrolo[2,3-b]pyridin-5-yloxy)benzamide], for which the EC50 stood at 39.2 nM.

As for `CC1(C)CCC(CN2CCN(c3ccc(C(=O)NS(=O)(=O)c4cnc(OCC5(F)CCOCC5)c(Cl)c4)c(Oc4cnc5[nH]ccc5c4)c3)CC2)=C(c2ccc(Cl)cc2)C1` [Example 96, N-({5-chloro-6-[(4-fluorotetrahydro-2H-pyran-4-yl)methoxy]pyridin-3-yl}sulfonyl)-4-(4-{[2-(4-chlorophenyl)-4,4-dimethylcyclohex-1-en-1-yl]methyl}piperazin-1-yl)-2-(1H-pyrrolo[2,3-b]pyridin-5-yloxy)benzamide], the EC50 was 43.6 nM.

Regarding `CC1(C)CCC(CN2CCN(c3ccc(C(=O)NS(=O)(=O)c4ccc(NC5CCN(CC(F)(F)F)CC5)c([N+](=O)[O-])c4)c(Oc4cnc5[nH]ccc5c4)c3)CC2)=C(c2ccc(Cl)cc2)C1` [Example 83, 4-(4-{[2-(4-chlorophenyl)-4,4-dimethylcyclohex-1-en-1-yl]methyl}piperazin-1-yl)-N-[(3-nitro-4-{[1-(2,2,2-trifluoroethyl)piperidin-4-yl]amino}phenyl)sulfonyl]-2-(1H-pyrrolo[2,3-b]pyridin-5-yloxy)benzamide], the EC50 came out at 197 nM.

On to `CO[C@H]1CC[C@@H](CNc2ccc(S(=O)(=O)NC(=O)c3ccc(N4CCN(CC5=C(c6ccc(Cl)cc6)CC(C)(C)CC5)CC4)cc3Oc3cnc4[nH]ccc4c3)cc2[N+](=O)[O-])CC1` [Example 29, Cis-4-(4-{[2-(4-chlorophenyl)-4,4-dimethylcyclohex-1-en-1-yl]methyl}piperazin-1-yl)-N-[(4-{[(4-methoxycyclohexyl)methyl]amino}-3-nitrophenyl)sulfonyl]-2-(1H-pyrrolo[2,3-b]pyridin-5-yloxy)benzamide], for which the EC50 worked out at 20.5 nM.

Consider `CC1(C)CCC(CN2CCN(c3ccc(C(=O)NS(=O)(=O)c4ccc(N[C@@H]5CC[C@H](N6CCOCC6)C5)c([N+](=O)[O-])c4)c(Oc4cnc5[nH]ccc5c4)c3)CC2)=C(c2ccc(Cl)cc2)C1` [Example 112, 4-(4-{[2-(4-chlorophenyl)-4,4-dimethylcyclohex-1-en-1-yl]methyl}piperazin-1-yl)-N-[(4-{[(1R,3S)-3-morpholin-4-ylcyclopentyl]amino}-3-nitrophenyl)sulfonyl]-2-(1H-pyrrolo[2,3-b]pyridin-5-yloxy)benzamide], for which the EC50 is 20.6 nM.

For the compound `CC1(C)CCC(CN2CCN(c3ccc(C(=O)NS(=O)(=O)c4cnc(OCC5COCCO5)c(C#N)c4)c(Oc4cnc5[nH]ccc5c4)c3)CC2)=C(c2ccc(Cl)cc2)C1` (stereo not drawn) [Example 49, 4-(4-{[2-(4-chlorophenyl)-4,4-dimethylcyclohex-1-en-1-yl]methyl}piperazin-1-yl)-N-{[5-cyano-6-(1,4-dioxan-2-ylmethoxy)pyridin-3-yl]sulfonyl}-2-(1H-pyrrolo[2,3-b]pyridin-5-yloxy)benzamide], the EC50 came to 352 nM.

As to `CC1(C)CCC(CN2CCN(c3ccc(C(=O)NS(=O)(=O)c4ccc(NC5CCS(=O)(=O)CC5)c([N+](=O)[O-])c4)c(Oc4cnc5[nH]ccc5c4)c3)CC2)=C(c2ccc(Cl)cc2)C1` [Example 81, 4-(4-{[2-(4-chlorophenyl)-4,4-dimethylcyclohex-1-en-1-yl]methyl}piperazin-1-yl)-N-({4-[(1,1-dioxidotetrahydro-2H-thiopyran-4-yl)amino]-3-nitrophenyl}sulfonyl)-2-(1H-pyrrolo[2,3-b]pyridin-5-yloxy)benzamide], the EC50 came to 48.1 nM.

For the compound `CC1(C)CCC(CC2CCN(c3ccc(C(=O)NS(=O)(=O)c4ccc(NCC5CCOCC5)c([N+](=O)[O-])c4)c(Oc4cnc5[nH]ccc5c4)c3)CC2)=C(c2ccc(Cl)cc2)C1` [Example 315, 4-(4-{[2-(4-chlorophenyl)-4,4-dimethylcyclohex-1-en-1-yl]methyl}piperidin-1-yl)-N-({3-nitro-4-[(tetrahydro-2H-pyran-4-ylmethyl)amino]phenyl}sulfonyl)-2-(1H-pyrrolo[2,3-b]pyridin-5-yloxy)benzamide], the EC50 was 210 nM.

Regarding `CC1(C)CCC(CN2CCN(c3ccc(C(=O)NS(=O)(=O)c4ccc(OCC5CN(C6CC6)CCO5)c(Cl)c4)c(Oc4cnc5[nH]ccc5c4)c3)CC2)=C(c2ccc(Cl)cc2)C1` (stereo not drawn) [Example 331, N-({3-chloro-4-[(4-cyclopropylmorpholin-2-yl)methoxy]phenyl}sulfonyl)-4-(4-{[2-(4-chlorophenyl)-4,4-dimethylcyclohex-1-en-1-yl]methyl}piperazin-1-yl)-2-(1H-pyrrolo[2,3-b]pyridin-5-yloxy)benzamide], the EC50 was 926 nM.

The values are drawn from patent US20240043404A1 (AbbVie Inc., priority 2009, published 2024).
